Assay results taken from the supplement of paper PMC10307832.

Experiments:
Assay in all cases: relative viability (nuclei count vs DMSO), 5 days (fraction); higher = more cells survive
Olaparib + Decitabine = compound: O=C(c1cc(Cc2n[nH]c(=O)c3ccccc23)ccc1F)N1CCN(C(=O)C2CC2)CC1 [Olaparib] + Nc1ncn([C@H]2C[C@H](O)[C@@H](CO)O2)c(=O)n1 [Decitabine] (partner 2 µM)
Method in brief: (§1)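 Lung cancer cell lines in 1536-well plates got either a single drug or a fixed anchor-drug dose together with five library-drug doses (not always all listed) in √10 steps, by pin tool, on the day after seeding. Nuclei were counted after 5 days, and relative viability is the treated-to-vehicle ratio of nuclei counts. Values are medians of duplicate plates.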

Carfilzomib + Linsitinib = compound: CC(C)C[C@H](NC(=O)[C@H](CCc1ccccc1)NC(=O)CN1CCOCC1)C(=O)N[C@@H](Cc1ccccc1)C(=O)N[C@@H](CC(C)C)C(=O)[C@@]1(C)CO1 [Carfilzomib] + C[C@]1(O)C[C@@H](c2nc(-c3ccc4ccc(-c5ccccc5)nc4c3)c3c(N)nccn32)C1 [Linsitinib] (partner 1 µM)
Method in brief: as §1

[1] = compound: CC(C)C[C@H](NC(=O)[C@H](CCc1ccccc1)NC(=O)CN1CCOCC1)C(=O)N[C@@H](Cc1ccccc1)C(=O)N[C@@H](CC(C)C)C(=O)[C@@]1(C)CO1 [Carfilzomib] + CC(=O)c1c(C)c2cnc(Nc3ccc(N4CCNCC4)cn3)nc2n(C2CCCC2)c1=O [Palbociclib] (partner 0.5 µM)
Method in brief: as §1

Crizotinib + Olaparib = compound: C[C@@H](Oc1cc(-c2cnn(C3CCNCC3)c2)cnc1N)c1c(Cl)ccc(F)c1Cl [Crizotinib] + O=C(c1cc(Cc2n[nH]c(=O)c3ccccc23)ccc1F)N1CCN(C(=O)C2CC2)CC1 [Olaparib] (partner 8 µM)
Method in brief: as §1

Carfilzomib + OSI-027 = compound: CC(C)C[C@H](NC(=O)[C@H](CCc1ccccc1)NC(=O)CN1CCOCC1)C(=O)N[C@@H](Cc1ccccc1)C(=O)N[C@@H](CC(C)C)C(=O)[C@@]1(C)CO1 [Carfilzomib] + COc1cccc2cc(-c3nc([C@H]4CC[C@H](C(=O)O)CC4)n4ncnc(N)c34)[nH]c12 [OSI-027] (partner 0.5 µM)
Method in brief: as §1

## NCI-H1793
Olaparib + Decitabine; first compound 0.08 µM
  relative viability: 0.338
Olaparib + Decitabine; first compound 0.253 µM
  relative viability: 0.417
Olaparib + Decitabine; first compound 2.53 µM
  relative viability: 0.337
Olaparib + Decitabine; first compound 8 µM
  relative viability: 0.326
Carfilzomib + Linsitinib; first compound 0.003162 µM
  relative viability: 0.737
Carfilzomib + Linsitinib; first compound 0.01 µM
  relative viability: 0.761
Carfilzomib + Linsitinib; first compound 0.03162 µM
  relative viability: 0.939
Carfilzomib + Linsitinib; first compound 0.1 µM
  relative viability: 0.585
[1]; first compound 0.001 µM
  relative viability: 0.338
[1]; first compound 0.003162 µM
  relative viability: 0.402
[1]; first compound 0.01 µM
  relative viability: 0.331
[1]; first compound 0.03162 µM
  relative viability: 0.275
[1]; first compound 0.1 µM
  relative viability: 0.197
Crizotinib + Olaparib; first compound 0.1 µM
  relative viability: 0.835
Crizotinib + Olaparib; first compound 1 µM
  relative viability: 0.903
Carfilzomib + OSI-027; first compound 0.003162 µM
  relative viability: 0.323
Carfilzomib + OSI-027; first compound 0.01 µM
  relative viability: 0.369
Carfilzomib + OSI-027; first compound 0.03162 µM
  relative viability: 0.269
Carfilzomib + OSI-027; first compound 0.1 µM
  relative viability: 0.133
